Laboratory results reported in patent US7977049B2, “Methods and compositions for extending the life span and increasing the stress resistance of cells and organisms” (priority 2002, dated 2011).
Where two headings read alike, the source gives them in different places.

Key:
[1] = test system: silent mating type locus (HMR); test: HMR::GFP reporter silencing (fluorescence microscopy and FACS); assay type: cell-based, Saccharomyces cerevisiae; conditions: for GFP expression from HMR by FACS: asynchronous wild type cells, 5 mM compound
Experimental: FIG. 10. […] Cells were photographed live. […] Cells were analyzed by fluorescent activated cell sorting (FACS) to determine the extent of ADH-GFP expression. C, A MATa derivative of strain YDS970 (YDS1005) was deleted for HML and treated with 10 μg/ml alpha-factor for 3 hours. […] Cell cycle progression was monitored at each time point by FACS analysis of propidium iodide stained cells.
GFP fluorescence was quantified by fluorescence-activated cell sorting (FACS) using a FACSCalibur flow cytometer (Becton Dickinson, Calif.) as described (45′). For G1-arrest experiments, cells were treated with 10 μg/ml alpha factor for 3 hours. DNA content was determined by FACS analysis of fixed cells stained with propidium iodide (Sigma) as described (45′). Typically 20,000 cells were analyzed per sample. Data acquisition and analysis were performed using CELLQuest software (Becton Dickenson).

[2] = test system: rDNA locus of yeast (W303AR5 strains); test: Ribosomal DNA recombination (loss of ADE2 marker at the rDNA locus); assay type: cell-based, Saccharomyces cerevisiae; conditions: 5 mM nicotinamide
Experimental: (§1) FIG. 9. […] A, Strains were assayed for rDNA stability by examining the rate of loss of an ADE2 marker integrated at the rDNA locus. […] More than 10,000 colonies were examined for each strain and each experiment was performed in triplicate. Average recombination frequencies (+/−s.d.) per cell division are shown. Relevant strains: W303-1A RDN1::ADE2 (W303AR5) and W303AR5 derivatives 2×SIR2 (YDS1572) and sir2::TRP1 (YDS878). […] C and D, Life spans were determined by scoring the number of daughter cells produced by each mother cell before cessation of cell division (68′,69′). Cells were pre-grown for a minimum of 48 h on complete glucose medium.

recombinant human SIRT1 = biological target: T1, recombinant human SIRT1 (Homo sapiens, UniProt Q96EB6); test: In vitro deacetylation assay (HDAC Fluorescent Activity Assay), SIRT1; assay type: biochemical
T1 sequence (Q96EB6 1-747): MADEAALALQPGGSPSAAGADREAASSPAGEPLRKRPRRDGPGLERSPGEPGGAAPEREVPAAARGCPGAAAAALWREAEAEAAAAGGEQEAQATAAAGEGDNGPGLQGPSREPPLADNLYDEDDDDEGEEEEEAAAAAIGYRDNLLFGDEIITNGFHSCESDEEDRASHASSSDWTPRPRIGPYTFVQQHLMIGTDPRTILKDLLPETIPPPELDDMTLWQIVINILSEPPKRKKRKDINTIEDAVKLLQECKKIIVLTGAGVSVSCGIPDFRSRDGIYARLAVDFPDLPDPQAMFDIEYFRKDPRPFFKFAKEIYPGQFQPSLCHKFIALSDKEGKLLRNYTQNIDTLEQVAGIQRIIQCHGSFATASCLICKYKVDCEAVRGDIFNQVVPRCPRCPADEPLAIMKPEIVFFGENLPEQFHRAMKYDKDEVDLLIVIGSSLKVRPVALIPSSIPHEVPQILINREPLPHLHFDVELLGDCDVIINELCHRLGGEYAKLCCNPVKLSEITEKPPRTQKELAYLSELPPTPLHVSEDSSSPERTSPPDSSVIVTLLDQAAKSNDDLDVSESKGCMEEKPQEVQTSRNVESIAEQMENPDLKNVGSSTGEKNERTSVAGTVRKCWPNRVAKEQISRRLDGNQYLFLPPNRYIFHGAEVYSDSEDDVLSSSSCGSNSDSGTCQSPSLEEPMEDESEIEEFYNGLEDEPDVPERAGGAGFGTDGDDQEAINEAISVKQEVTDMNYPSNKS
Experimental: (§2) FIG. 13. […] Reactions were terminated by the addition of developer and samples were analyzed by fluorometry (excitation set at 360 nm and emission at 460 nm). Experiments were performed in triplicate. Data is shown as a Lineweaver-Burk double reciprocal plot of arbitrary fluorescence units (AFUs) min^−1 versus NAD^+ (μM). B, Experiments were performed as in A, except that recombinant human SIRT1 was used and reactions were carried out at 37° C. […] Reactions were carried out at 37° C. for 30 minutes and fluorescence was measured as in A.
(§3) In vitro deacetylation assays—Recombinant GST tagged yeast Sir2p (gift of D. Moazed) and recombinant human SIRT1 (47′) were assayed for deacetylase activity using the HDAC Fluorescent Activity Assay/Drug Discovery Kit (AK-500, BIOMOL Research Laboratories). This assay system allows detection of a fluorescent signal upon deacetylation of a histone substrate when treated with developer. Fluorescence was measured on a fluorometric reader (Cytofluor II 400 series PerSeptive Biosystems) with excitation set at 360 nm and emission detection set at 460 nm. Reactions consisted of either 5 μg of GST-Sir2 or 2.5 μg of SIRT1, incubated with 250 μM acetylated histone substrate, 1 mM DTT and a range of NAD^+ concentrations as described, in 50 μl of assay buffer. […]

[3] = biological target: T2, association of Sir2 with rDNA, HMR and sub-telomeric DNA (Saccharomyces cerevisiae, UniProt P06700); test: Chromatin immunoprecipitation with α-Sir2 antibody; assay type: cell-based; conditions: 5 mM nicotinamide
T2 construct: endogenous in cells; host or cells: S. cerevisiae W303AR5
T2 sequence (P06700 whole entry): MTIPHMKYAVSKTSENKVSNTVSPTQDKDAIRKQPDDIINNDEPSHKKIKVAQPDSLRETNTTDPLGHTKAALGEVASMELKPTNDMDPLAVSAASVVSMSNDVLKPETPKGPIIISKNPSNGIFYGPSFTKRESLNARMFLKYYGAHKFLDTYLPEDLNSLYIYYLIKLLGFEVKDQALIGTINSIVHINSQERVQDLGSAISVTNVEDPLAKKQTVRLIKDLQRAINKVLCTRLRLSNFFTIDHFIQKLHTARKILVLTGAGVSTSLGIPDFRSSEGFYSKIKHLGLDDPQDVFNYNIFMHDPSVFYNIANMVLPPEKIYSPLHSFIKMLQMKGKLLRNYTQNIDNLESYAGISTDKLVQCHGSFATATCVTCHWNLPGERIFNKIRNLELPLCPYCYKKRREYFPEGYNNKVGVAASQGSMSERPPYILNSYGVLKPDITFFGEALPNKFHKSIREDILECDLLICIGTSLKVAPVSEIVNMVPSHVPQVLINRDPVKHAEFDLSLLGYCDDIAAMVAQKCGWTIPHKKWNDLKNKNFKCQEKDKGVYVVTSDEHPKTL
Experimental: FIG. 12. […] PCR amplification of both input DNA from whole cell extracts and immunoprecipitated chromatin are shown. PCR was performed using primer pairs specific for the CUP1 gene (top panels), 5S rDNA (second panels), the HMR locus (third panels), or subtelomeric DNA 1.4 and 0.6 kb from telomeres (bottom panels).
Fluorescence Microscopy and Chomatin immunoprecipitation—GFP fluorescence was visualized in live cells grown to log phase in synthetic complete (SC) medium (1.67% yeast nitrogen base, 2% glucose, 40 mg/liter each of histidine, uridine, tryptophan, adenine and leucine). Images were captured using a Nikon Eclipse E600 microscope at a magnification of 1000× and analyzed with Scion Image software. PCR reactions were carried out in a 50 μl volume using a 1/5000 or a 1/12500 dilution of input DNA from precleared whole-cell extracts and a 1/50 dilution of immunoprecipitated DNA. PCR parameters were as follows. For CUP1 and 5S rDNA primer pairs, 26 cycles of PCR were performed with an annealing temperature of 55° C. For Tel 0.6, Tel 1.4 and HM primer pairs 32 cycles at an annealing temperature of 50° C. were used. PCR products were separated by gel electrophoresis on a 2.3% agarose gel and visualized by ethidium bromide staining.

[4] = test system: yeast (PSY316AT and sir2::TRP1 strains)
Experimental: as §1
Replicative life span determination was performed by micromanipulation as described (25′). A minimum of 40 cells were examined per experiment and each experiment was performed at least twice independently. Statistical significance of life span differences was determined using the Wilcoxon rank sum test. Differences are stated to be significant when the confidence is higher than 95%.
Cells were grown for two days on fresh yeast YPD medium to ensure that they had fully recovered from conditions of calorie restriction prior to the assay. Daughter cells that emerged from previously unbudded mother cells were then micro-manipulated away and scored.

[5] = biological target: T3, Recombinant GST tagged yeast Sir2p (Saccharomyces cerevisiae, UniProt P06700); test: In vitro deacetylation assay (HDAC Fluorescent Activity Assay), Sir2; assay type: biochemical; conditions: 200-750 μM NAD+, 30° C.
T3 construct: gift of D. Moazed
T3 sequence (P06700 whole entry): as above
Experimental: as §2, §3

silencing at telomeres = test: Telomeric silencing assay (ADE2 marker at the telomere); assay type: cell-based, Saccharomyces cerevisiae; conditions: 5 mM nicotinamide, limiting adenine
Experimental: Silencing of the MET15 marker is indicated by the accumulation of a brown pigment. Single dark brown colonies in RDN1::MET15 strains represent marker loss events. Relevant genotypes: met15Δ (JS209), MET15 (JS241), RDN1::MET15 (JS237), sir2::TRP1 (JS218), 2×SIR2 (YDS1583). […] Silencing of the ADE2 marker results in the accumulation of a red pigment. Relevant genotypes: (PSY316AT), W303-1 A ADE2 (YDS1596) and W303-1A ade2 (YDS 1595).
Cells were grown at 30° C. on YPD medium (1% yeast extract, 2% bactopeptone, 2% glucose w/v) unless otherwise stated. The extent of silencing at the ribosomal DNA locus was determined by growing RDN1::MET15 strains on Pb^2+-containing medium (0.3% peptone, 0.5% yeast extract, 4% glucose, 0.02% (w/v) ammonium acetate, 0.07% Pb(NO3)2 and 2% agar). […] Ribosomal DNA recombination frequencies were determined as previously described (44′).
To monitor telomeric silencing, we used a strain in which the ADE2 gene is integrated at the subtelomeric (Y′) region of the right arm of chromosome V (22′). On plates with limiting adenine, colonies have red/white sectors due to variegated expression of the ADE2 marker.

Sir2 = Sir2 protein levels in the presence of nicotinamide; assay type: cell-based, Saccharomyces cerevisiae; conditions: nicotinamide 1-5 mM
[6] = test system: silencing of mating type genes; test: Mating type locus silencing assay; assay type: cell-based, Saccharomyces cerevisiae; conditions: nicotinamide
[7] = test system: silencing at the rDNA locus (RDN1)
Experimental: Silencing of the MET15 marker is indicated by the accumulation of a brown pigment. Single dark brown colonies in RDN1::MET15 strains represent marker loss events. […] Silencing of the ADE2 marker results in the accumulation of a red pigment.
Cells were grown at 30° C. on YPD medium (1% yeast extract, 2% bactopeptone, 2% glucose w/v) unless otherwise stated. The extent of silencing at the ribosomal DNA locus was determined by growing RDN1::MET15 strains on Pb^2+-containing medium (0.3% peptone, 0.5% yeast extract, 4% glucose, 0.02% (w/v) ammonium acetate, 0.07% Pb(NO3)2 and 2% agar).
Strains with either an ADE2 or MET15 marker integrated at the rDNA locus (RDN1) were examined. Silencing of ADE2 results in the accumulation of a red pigment on plates with limiting adenine, whereas silencing of MET15 leads to production of a brown pigment on Pb^2+-containing medium. […] Strains with a single extra copy of SIR2 (2×SIR2) or lacking SIR2 (sir2::TRP1), were included as controls for increased silencing and lack of silencing, respectively.

SMILES: O=C(O)c1cccnc1C(=O)O [quinolinic acid]
- GFP expression from HMR by FACS [1]: no increase in GFP expression

SMILES: NC(=O)c1cccnc1 [nicotinamide]
- rDNA recombination in the sir2 strain ([2]; sir2 strain): did not further increase recombination
- increase of the frequency of ADE2 marker loss at the rDNA ([2]; wild type and 2×SIR2 cells): ~7 fold
- HMR silencing in G1-arrested cells by FACS ([1]; alpha factor arrested cells, 5 mM nicotinamide): loss of silencing
- GFP expression from HMR by FACS [1]: complete derepression
- GFP expression from HMR, live cells (microscopy) ([1]; cycling cells, 5 mM nicotinamide, after 60 minutes): dramatic increase in the level of expression
- mode of inhibition of SIRT1 (Lineweaver-Burk plot) (recombinant human SIRT1; varying amounts of nicotinamide and NAD+): non-competitive
- ChIP: Sir2 association with 5S rDNA [3]: did not alter the amount of PCR product
- ChIP: Sir2 association with HMR [3]: no PCR product was obtained
- ChIP: Sir2 association with sub-telomeric DNA ([3]; 0.6 and 1.4 kb from telomere): equivalent to background
- Average life span, sir2 strain ([4]; sir2::TRP1 (YDS1594), 5 mM nicotinamide): 11.7
- Average life span, wild type ([4]; wild type (PSY316AT), 5 mM nicotinamide): 12.1
- mode of inhibition of Sir2 deacetylation (Lineweaver-Burk plot) [5]: strong non-competitive inhibitor
- telomeric silencing of ADE2 marker (silencing at telomeres): complete loss of repression
- Sir2 protein levels (Sir2): unaltered
- silencing of mating type genes [6]: completely abrogated silencing
- silencing of MET15 marker at the rDNA locus ([7]; 5 mM nicotinamide): completely abolished
- Silencing of an ADE2 marker at the rDNA locus ([7]; addition of nicotinamide): similarly abolished

SMILES: O=C(O)c1cccnc1 [nicotinic acid]
- GFP expression from HMR by FACS [1]: no increase in GFP expression
- effect on the activity of SIRT1 in vitro (recombinant human SIRT1; 50 μM compound, 200 μM NAD+): no effect
- effect on replicative life span ([4]; 5 or 50 mM nicotinic acid): no detrimental effect
- Average life span, sir2 strain ([4]; sir2 strain, nicotinic acid (concentration not clear)): 12.2
- Average life span, wild type ([4]; wild type, 5 mM nicotinic acid): 26
- Average life span, wild type ([4]; wild type, 50 mM nicotinic acid): 25
- effect on Sir2-dependent silencing ([7]; 5 mM nicotinic acid, each of the rDNA, telomeric and mating type silencing assays): no effect
